Assay results from US11001605B2, “Cyclic dinucleotides containing benzimidazole, method for the production of same, and use of same to activate stimulator of interferon genes (sting)-dependent signaling pathways” (BIOLOG LIFE SCIENCE INSTITUTE GmbH & Co. KG, priority 2016, dated 2021).
Values belong to the compound of their own block, whether it stands above or below them.

Legend:
[1] = Lipophilicity determination by gradient HPLC (log k′g); type: physicochemical; conditions: HPLC gradient 1, RP-18, triethylammonium phosphate buffer pH 6.5 / methanol (ion pair chromatography)
Experimental: Gradient 1: Stationary phase: Polygosil 60-10, RP-18; 250×4 mm (Macherey & Nagel, DOren, Germany). Mobile phase A: 10 ml 1 M triethylammonium phosphate buffer (TEAP), pH 6.5+990 ml methanol. Mobile phase B: 10 ml 1 M TEAP, pH 6.5+990 ml H2O. Time program: 0 min: 100% B; 60 min: 100% A; 65 min: 100% A; 70 min: 100% B; 90 min: 100% B. Flow rate: 1.0 ml/min.
The octanol/water coefficient Log P is the commonly accepted indicator for the expected property of a given chemical entity to pass cellular membranes by passive diffusion. However, its practical determination for polar compounds such as multiply charged nucleotides is difficult in reality. Often, the information about membrane permeability must be received by fragmental analysis or other calculations.
Given this fact, an established HPLC method is used here, which is based on the measurement of retention on a reversed phase column^7. In contrast to Log P, this method yields the indicator log k′g, which allows for a ranking of different nucleotides of the same charge according to their lipophilicity.
Since CDNs are twofold negatively charged molecules which are only very insufficiently retarded on a reversed phase HPLC column, the determinations were performed in presence of the lipophilic triethylammonium cation (ion pair chromatography).
According to the established method^7 HPLC gradient 1 was used for the determination of lipophilicity.

STING signalling pathway = assay: Interferon-β promoter SEAP reporter assay in THP1-Blue cells; type: cell-based, human; conditions: 0, 10, 20, 40 μg/ml, 24 hours
Experimental: Legend for Synthesis 4: THP1-Blue™ cells ((THP1-ISG); InvivoGen, catalogue number: thp-isg; concentration: 5×10^5/ml, 180 μl/well (96-well-plate) were incubated with inventive CDNs in different concentrations (0 μg/ml; 10 μg/ml; 20 μg/ml; 40 μg/ml) in medium (RPMI-1640, 2 mM L-glutamine, 1.5 g/I sodium bicarbonate, 4.5 g/I glucose, 10 mM HEPES, 1 mM sodium pyruvate, 10% FCS, 100 μg/ml Zeocin™, 110 μg/ml Normocin™, Pen-Strep 50 U/ml) for 24 hours at 37° C. in 5% CO2. The quantification was performed with SEAP detection reagent QUANTI-Blue™ (InvivoGen; catalogue number: rep-qb1; incubation time: 30 min at 37° C. in 5% CO2) by optical density (OD) determination at 625 nm.
Legend for Synthesis 5: THP1-Blue™ cells ((THP1-ISG); InvivoGen, catalogue number: thp-isg; concentration: 5×10^5/ml, 180 μl/well (96-well-plate) and THP1 Dual™ KO STING cells ((STING KO) InvivoGen, catalogue number: thpd-kostg; concentration: 5×10^5/ml, 180 μl/well (96-well-plate) were incubated with inventive CDNs (concentration 40 μg/ml each) in medium (RPMI-1640, 2 mM L-glutamine, 1.5 g/I sodium bicarbonate, 4.5 g/I glucose, 10 mM HEPES, 1 mM sodium pyruvate, 10% FCS, 100 μg/mL Zeocin™, 110 μg/mL Normocin™, Pen-Strep 50 U/mL) for 24 hours at 37° C. in 5% CO2. For incubations with THP1 Dual™ KO STING cells, 10 μg/ml of blasticidin were added to the medium. Quantification was performed with SEAP detection reagent QUANTI-Blue™ (InvivoGen; catalogue number: rep-qb1; incubation time: 15 min at 37° C. in 5% CO2) by optical density (OD) determination at 625 nm.
Cell line: THP1-Blue™ cells (InvivoGen, catalogue number: thp-isg) are derived from THP1 cells. THP1-Blue™ cells in a cell culture dish are stimulated by the administration of a CDN according to the invention or a buffer control.
In these genetically modified cells, the gene for secreted embryonic alkaline phosphatase (SEAP) is under the control of an interferon-β promoter.
After stimulation of the cells with an inventive CDN, the supernatant of the cell culture was removed and the enzymatic activity of SEAP was measured photometrically in a colorimetric assay by measuring the extinction at 625 nm (optical density; OD 625 nm).
Administration of an inventive CDN induces an increase in the activity of SEAP, which is a measure of the activity of the STING signalling pathway.

[2] = tested on: STING-induced dimerisation and phosphorylation of IRF3, STING-induced phosphorylation of TBK1; assay: STING-induced dimerisation and phosphorylation of IRF3 and phosphorylation of TBK1, Western Blot of THP-1 cell lysate; type: cell-based, human; conditions: THP-1 cells, native gel and SDS-PAGE Western Blot, versus buffer control
Experimental: Cell line: THP-1 cells (Sigma Cat. No. 88081201-1VL) were isolated from peripheral blood of a patient with acute leukaemia.
After application of an inventive CDN or a buffer control to THP1 cells in a culture dish a cell lysate is prepared, of which one part is applied to a native polyacrylamide gel and the other part to two denaturing polyacrylamide gels (SDS-PAGE). The developed gels are analysed with Western Blot technique.
In case of the native gel an IRF3 antibody is used.
The presence of an inventive CDN results in the formation of a second band, showing a running behaviour, which corresponds to the doubled molecular weight of IRF3. This band represents the dimer of IRF3, that has been formed under the influence of an inventive CDN.
In case of the two denaturing gels, either an antibody against phosphorylated IRF3 or an antibody against phosphorylated TBK1 is used. In the buffer control for each of the gels only a very weak band is detected. After application of an inventive CDN, the intensities of these bands are much more pronounced. This increase of intensity reflects the phosphorylation of IRF3 and of TBK1, respectively, induced by the inventive CDNs. Both, the dimerisation of IRF3 and the detected phosphorylations are a direct result of STING activation.

log k′g ([1]; listed as 23, MI1): 1.509
SMILES: Nc1nc2c(ncn2[C@@H]2O[C@@H]3COP(=O)(S)OC4C(O)[C@H](n5cnc6ccccc65)O[C@@H]4COP(=O)(S)OC2C3O)c(=O)[nH]1 (single isomer, unassigned) [Compound 23, MI1, Cyclic (guanosine-(2′→5′)-monophosphorothioate-benzimidazole riboside-(3′→5′)-monophosphorothioate)]

log k′g ([1]; listed as 23, MI2): 1.658
SMILES: Nc1nc2c(ncn2[C@@H]2O[C@@H]3COP(=O)(S)OC4C(O)[C@H](n5cnc6ccccc65)O[C@@H]4COP(=O)(S)OC2C3O)c(=O)[nH]1 (single isomer, unassigned) [Compound 23, MI2, Cyclic (guanosine-(2′→5′)-monophosphorothioate-benzimidazole riboside-(3′→5′)-monophosphorothioate)]
SEAP activity, elevated OD at 625 nm, concentration-dependent (STING signalling pathway): positive

log k′g ([1]; listed as 29, MI1): 2.318
SMILES: Nc1nc2c(ncn2[C@@H]2O[C@@H]3COP(=O)(S)OC4C(O)[C@H](n5cnc6cc(Cl)c(Cl)cc65)O[C@@H]4COP(=O)(S)OC2C3O)c(=O)[nH]1 (single isomer, unassigned) [Compound 29, MI1, Cyclic (guanosine-(2′→5′)-monophosphorothioate-5,6-dichlorobenzimidazole riboside-(3′→5′)-monophosphorothioate)]

log k′g ([1]; listed as 98, MI2): 1.584
SMILES: Nc1ncnc2c1ncn2[C@@H]1O[C@@H]2COP(=O)(S)OC3C(O)[C@@H](COP(=O)(S)OC2C1O)O[C@H]3n1cnc2ccccc21 (single isomer, unassigned) [Compound 98, MI2, Cyclic (adenosine-(3′→5′)-monophosphorothioate-benzimidazole riboside-(2′→5′)-monophosphorothioate)]

SMILES: Nc1nc2c(ncn2[C@@H]2O[C@@H]3COP(=O)(O)O[C@H]4[C@@H](O)[C@H](n5cnc6c(N)ncnc65)O[C@@H]4COP(=O)(O)O[C@@H]2[C@@H]3O)c(=O)[nH]1 [2′,3′-cGAMP, reference compound]
log k′g [1]: 0.766

log k′g [1]: 1.732
SMILES: O=P1(O)OC[C@H]2O[C@@H](n3cnc4ccccc43)C(O)C2OP(=O)(O)OC[C@H]2O[C@@H](n3cnc4ccccc43)C(O)C2O1 (stereo partly shown) [Compound 1, cyclic (benzimidazole riboside- (3′ −> 5′)-monophosphate- benzimidazole riboside-(3′ −> 5′)- monophosphate)]

SMILES: O=P1(S)OC[C@H]2O[C@@H](n3cnc4ccccc43)C(O)C2OP(=O)(S)OC[C@H]2O[C@@H](n3cnc4ccccc43)C(O)C2O1 (stereo partly shown) [Compound 4, cyclic (benzimidazole riboside- (3′ −> 5′)-monophosphorothioate- benzimidazole riboside-(3′ −> 5′)- monophosphorothioate)]
STING-induced dimerisation of IRF3, phosphorylation of IRF3 and phosphorylation of TBK1 [2]: positive

log k′g [1]: 2.970
SMILES: O=P1(O)OC[C@H]2O[C@@H](n3cnc4cc(Cl)c(Cl)cc43)C(O)C2OP(=O)(O)OC[C@H]2O[C@@H](n3cnc4cc(Cl)c(Cl)cc43)C(O)C2O1 (stereo partly shown) [Compound 7, cyclic (5,6-dichlorobenzimidazole riboside-(3′ −> 5′)-monophosphate-5,6-dichlorobenzimidazole riboside-(3′ −> 5′)-monophosphate)]

SMILES: O=P1(S)OC[C@H]2O[C@@H](n3cnc4cc(Cl)c(Cl)cc43)C(O)C2OP(=O)(S)OC[C@H]2O[C@@H](n3cnc4cc(Cl)c(Cl)cc43)C(O1)C2O (stereo partly shown) [Compound 11, cyclic (5,6-dichlorobenzimidazole riboside-(2′ −> 5′)-monophosphorothioate-(5,6-dichlorobenzimidazole riboside-(3′ −> 5′)-monophosphorothioate)]
STING-induced dimerisation of IRF3, phosphorylation of IRF3 and phosphorylation of TBK1 [2]: positive

SMILES: Nc1nc2c(ncn2[C@@H]2O[C@@H]3COP(=O)(S)OC4C(O)[C@H](n5cnc6cc(Cl)c(Cl)cc65)O[C@@H]4COP(=O)(S)OC2C3O)c(=O)[nH]1 (stereo partly shown) [Compound 29, cyclic (guanosine-(2′ −> 5′)-monophosphorothioate-5,6-dichlorobenzimidazole riboside-(3′ −> 5′)-monophosphorothioate)]
STING-induced dimerisation of IRF3, phosphorylation of IRF3 and phosphorylation of TBK1 [2]: positive

SMILES: Nc1nc2c(ncn2[C@@H]2O[C@@H]3COP(=O)(S)OC4C(O)[C@@H](COP(=O)(S)OC2C3O)O[C@H]4n2cnc3cc(Cl)c(Cl)cc32)c(=O)[nH]1 (stereo partly shown) [Compound 30, cyclic (guanosine-(2′ −> 5′)-monophosphorothioate-5,6-dichlorobenzimidazole riboside-(2′ −> 5′)-monophosphorothioate)]
STING-induced dimerisation of IRF3, phosphorylation of IRF3 and phosphorylation of TBK1 [2]: positive

log k′g [1]: 2.039
SMILES: Nc1ncnc2c1ncn2[C@@H]1O[C@@H]2COP(=O)(O)OC3C(O)[C@H](n4cnc5cc(Cl)c(Cl)cc54)O[C@@H]3COP(=O)(O)OC2C1F (stereo partly shown) [Compound 81, cyclic (2′-fluoro-2′-deoxyadenosine-(3′ −> 5′)-monophosphate-5,6-dichlorobenzimidazole riboside-(3′ −> 5′)-monophosphate)]
SEAP activity, elevated OD at 625 nm, concentration-dependent (STING signalling pathway): positive

log k′g [1]: 1.211
SMILES: O=c1[nH]cnc2c1ncn2[C@@H]1O[C@@H]2COP(=O)(O)OC3C(O)[C@H](n4cnc5ccccc54)O[C@@H]3COP(=O)(O)OC2C1F (stereo partly shown) [Compound 85, cyclic (2′-fluoro-2′-deoxyinosine-(3′ −> 5′)-monophosphate-benzimidazole riboside-(3′ −> 5′)-monophosphate)]

SMILES: Nc1nc2c(ncn2[C@@H]2O[C@@H]3COP(=O)(O)O[C@H]4[C@@H](O)[C@H](n5cnc6c(=O)[nH]c(N)nc65)O[C@@H]4COP(=O)(O)O[C@H]3[C@H]2O)c(=O)[nH]1 [c-diGMP, reference compound]
log k′g [1]: 0.840
